Measurements: patent US20250098679A1, “HERBICIDAL PYRIDONE DERIVATIVES” (SYNGENTA CROP PROTECTION AG, priority 2021, published 2025)

Tests used:
Format in all cases: in vivo
[1] = tested on: Amaranthus retoflexus (AMARE); assay: Pre-emergence Test, Amaranthus retoflexus (AMARE); settings: evaluated after 13 days
[2] = tested on: Amaranthus palmeri (AMAPA); assay: Post-emergence Test, Amaranthus palmeri (AMAPA); set-up: key: 5=81-100%, 4=61-80%, 3=41-60%, 2=21-40%, 1=0-20% damage; settings: evaluated after 13 days
Outline: (§1)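 Percent plant damage was rated 13 days post-application on a 1–5 scale (1=0-20%, 5=81-100%). Application used an aqueous acetone (50:50)/0.5% Tween 20 spray, normally 1000 g/ha, with controlled glasshouse conditions (24/16 °C, 14 h light, 65% humidity).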

Setaria faberi (SETFA) = assay: Post-emergence Test, Setaria faberi (SETFA); set-up: key to percentage damage caused to the plant, SETFA (five-point scale): 5=81-100%, 4=61-80%, 3=41-60%, 2=21-40%, 1=0-20% damage; settings: 1000 g/ha, evaluated after 13 days
Outline: as §1

[3] = tested on: Ipomoea hederacea (IPOHE); assay: Pre-emergence Test, Ipomoea hederacea (IPOHE); settings: evaluated after 13 days
[4] = tested on: Echinochloa crus-galli (ECHCG); assay: Pre-emergence Test, Echinochloa crus-galli (ECHCG); settings: evaluated after 13 days
[5] = tested on: Ipomoea hederacea (IPOHE); assay: Post-emergence Test, Ipomoea hederacea (IPOHE); set-up: key to percentage damage caused to the plant, IPOHE (five-point scale): 5=81-100%, 4=61-80%, 3=41-60%, 2=21-40%, 1=0-20% damage; settings: evaluated after 13 days
Outline: as §1

[6] = tested on: Echinochloa crus-galli (ECHCG); assay: Post-emergence Test, Echinochloa crus-galli (ECHCG); set-up: key to percentage damage caused to the plant, ECHCG (five-point scale): 5=81-100%, 4=61-80%, 3=41-60%, 2=21-40%, 1=0-20% damage; settings: evaluated after 13 days; for percentage damage caused to the plant, ECHCG (five-point scale): 250 g/Ha
Outline: as §1

Zea mays (ZEAMX) [7] = assay: Pre-emergence Test, Zea mays (ZEAMX); settings: evaluated after 13 days
[8] = tested on: Amaranthus retoflexus (AMARE); assay: Post-emergence Test, Amaranthus retoflexus (AMARE); set-up: key to percentage damage caused to the plant, AMARE (five-point scale): 5=81-100%, 4=61-80%, 3=41-60%, 2=21-40%, 1=0-20% damage; settings: evaluated after 13 days
Outline: as §1

Zea mays (ZEAMX) [9] = assay: Post-emergence Test, Zea mays (ZEAMX); set-up: key to percentage damage caused to the plant, ZEAMX (five-point scale): 5=81-100%, 4=61-80%, 3=41-60%, 2=21-40%, 1=0-20% damage; settings: evaluated after 13 days
Outline: as §1

[10] = tested on: Amaranthus palmeri (AMAPA); assay: Pre-emergence Test, Amaranthus palmeri (AMAPA); settings: evaluated after 13 days

Structure (SMILES) | Pre-emergence Test AMARE, percentage damage caused to the plant (five-point scale) ([1]; 1000 g/ha) | Pre-emergence Test IPOHE, percentage damage caused to the plant (five-point scale) ([3]; 1000 g/ha) | Pre-emergence Test ECHCG, percentage damage caused to the plant (five-point scale) ([4]; 1000 g/ha) | Pre-emergence Test ZEAMX, percentage damage caused to the plant (five-point scale) (Zea mays (ZEAMX) [7]; 1000 g/ha) | Pre-emergence Test AMAPA, percentage damage caused to the plant (five-point scale) ([10]; 1000 g/ha) | Pre-emergence Test AMARE, percentage damage caused to the plant (five-point scale) ([1]; 250 g/Ha (*)) | percentage damage caused to the plant, AMAPA (five-point scale) ([2]; 250 g/Ha) | percentage damage caused to the plant, AMAPA (five-point scale) ([2]; 1000 g/ha) | percentage damage caused to the plant, SETFA (five-point scale) (Setaria faberi (SETFA)) | Pre-emergence Test IPOHE, percentage damage caused to the plant (five-point scale) ([3]; 250 g/Ha (*)) | Pre-emergence Test ECHCG, percentage damage caused to the plant (five-point scale) ([4]; 250 g/Ha (*)) | percentage damage caused to the plant, IPOHE (five-point scale) ([5]; 250 g/Ha) | percentage damage caused to the plant, IPOHE (five-point scale) ([5]; 1000 g/ha) | percentage damage caused to the plant, ECHCG (five-point scale) [6] | Pre-emergence Test ZEAMX, percentage damage caused to the plant (five-point scale) (Zea mays (ZEAMX) [7]; 250 g/Ha (*)) | percentage damage caused to the plant, AMARE (five-point scale) ([8]; 250 g/Ha) | percentage damage caused to the plant, AMARE (five-point scale) ([8]; 1000 g/ha) | percentage damage caused to the plant, ZEAMX (five-point scale) (Zea mays (ZEAMX) [9]; 250 g/Ha) | percentage damage caused to the plant, ZEAMX (five-point scale) (Zea mays (ZEAMX) [9]; 1000 g/ha) | Pre-emergence Test AMAPA, percentage damage caused to the plant (five-point scale) ([10]; 250 g/Ha (*)) | also measured
CCn1c(Cn2ccc(-c3cnccn3)n2)cc(=O)c(C(=O)O)c1-c1ccc(Cl)c(Cl)c1 [Compound 203, 2-(3,4-dichlorophenyl)-1-ethyl-4-oxo-6-[(3-pyrazin-2-ylpyrazol-1-yl)methyl]pyridine-3-carboxylic acid] | 1 (1=0-20%) | 0 | 2 (2=21-40%) | 1 (1=0-20%) | 1 (1=0-20%) | – | – | – | – | – | – | – | – | – | – | – | – | – | – | – | Post-emergence Test AMAPA, percentage damage caused to the plant (five-point scale) ([2]; 250 g/Ha (*)): 1 (1=0-20%); Post-emergence Test AMAPA, percentage damage caused to the plant (five-point scale) ([2]; 1000 g/ha): 0; Post-emergence Test SETFA, percentage damage caused to the plant (five-point scale) (Setaria faberi (SETFA)): 1 (1=0-20%); Post-emergence Test IPOHE, percentage damage caused to the plant (five-point scale) ([5]; 250 g/Ha (*)): 2 (2=21-40%); Post-emergence Test IPOHE, percentage damage caused to the plant (five-point scale) ([5]; 1000 g/ha): 1 (1=0-20%); Post-emergence Test ECHCG, percentage damage caused to the plant (five-point scale) ([6]; 250 g/Ha (*)): 1 (1=0-20%); Post-emergence Test AMARE, percentage damage caused to the plant (five-point scale) ([8]; 250 g/Ha (*)): 1 (1=0-20%); Post-emergence Test AMARE, percentage damage caused to the plant (five-point scale) ([8]; 1000 g/ha): 0; Post-emergence Test ZEAMX, percentage damage caused to the plant (five-point scale) (Zea mays (ZEAMX) [9]; 250 g/Ha (*)): 1 (1=0-20%); Post-emergence Test ZEAMX, percentage damage caused to the plant (five-point scale) (Zea mays (ZEAMX) [9]; 1000 g/ha): 1 (1=0-20%)
CCOc1ccn(Cc2cc(=O)c(C(=O)O)c(-c3ccc(Cl)c(Cl)c3)n2CC)n1 [Compound 164, 2-(3,4-dichlorophenyl)-6-[(3-ethoxypyrazol-1-yl)methyl]-1-ethyl-4-oxo-pyridine-3-carboxylic acid] | 1 (1=0-20%) | 4 (4=61-80%) | 5 (5=81-100%) | 0 | 1 (1=0-20%) | 1 (1=0-20%) | 1 (1=0-20%) | 3 (3=41-60%) | 5 (5=81-100%) | 4 (4=61-80%) | 4 (4=61-80%) | 3 (3=41-60%) | 4 (4=61-80%) | 4 (4=61-80%) | 1 (1=0-20%) | 1 (1=0-20%) | 3 (3=41-60%) | 4 (4=61-80%) | 4 (4=61-80%) | 0 | –
CCn1c(Cn2nccc2COC)cc(=O)c(C(=O)O)c1-c1ccc(Cl)c(Cl)c1 [Compound 190, 2-(3,4-dichlorophenyl)-1-ethyl-6-[[5-(methoxymethyl)pyrazol-1-yl]methyl]-4-oxo-pyridine-3-carboxylic acid] | 1 (1=0-20%) | 3 (3=41-60%) | 4 (4=61-80%) | 2 (2=21-40%) | 1 (1=0-20%) | 0 | 1 (1=0-20%) | 1 (1=0-20%) | 4 (4=61-80%) | 1 (1=0-20%) | 1 (1=0-20%) | 1 (1=0-20%) | 3 (3=41-60%) | 3 (3=41-60%) | 1 (1=0-20%) | 1 (1=0-20%) | 2 (2=21-40%) | 0 | 3 (3=41-60%) | 0 | –
CCn1c(Cn2ccc(C(C)=O)n2)cc(=O)c(C(=O)O)c1-c1ccc(Cl)c(Cl)c1 [Compound 180, 6-[(3-acetylpyrazol-1-yl)methyl]-2-(3,4-dichlorophenyl)-1-ethyl-4-oxo-pyridine-3-carboxylic acid] | 2 (2=21-40%) | 0 | 1 (1=0-20%) | 0 | 1 (1=0-20%) | – | 0 | 0 | 1 (1=0-20%) | – | – | 0 | 1 (1=0-20%) | 1 (1=0-20%) | – | 0 | 1 (1=0-20%) | 0 | 1 (1=0-20%) | – | –
CCn1c(Cn2ccc(OC(C)C)n2)cc(=O)c(C(=O)O)c1-c1ccc(Cl)c(Cl)c1 [Compound 166, 2-(3,4-dichlorophenyl)-1-ethyl-6-[(3-isopropoxypyrazol-1-yl)methyl]-4-oxo-pyridine-3-carboxylic acid] | 1 (1=0-20%) | 4 (4=61-80%) | 5 (5=81-100%) | 5 (5=81-100%) | 1 (1=0-20%) | 0 | 1 (1=0-20%) | 1 (1=0-20%) | 5 (5=81-100%) | 2 (2=21-40%) | 5 (5=81-100%) | 2 (2=21-40%) | 4 (4=61-80%) | 4 (4=61-80%) | 1 (1=0-20%) | 0 | 1 (1=0-20%) | 2 (2=21-40%) | 4 (4=61-80%) | 0 | –
CCn1c(Cn2ccc(OCC(F)F)n2)cc(=O)c(C(=O)O)c1-c1ccc(Cl)c(Cl)c1 [Compound 165, 2-(3,4-dichlorophenyl)-6-[[3-(2,2-difluoroethoxy)pyrazol-1-yl]methyl]-1-ethyl-4-oxo-pyridine-3-carboxylic acid] | 1 (1=0-20%) | 4 (4=61-80%) | 5 (5=81-100%) | 4 (4=61-80%) | 2 (2=21-40%) | 0 | 1 (1=0-20%) | 2 (2=21-40%) | 4 (4=61-80%) | 3 (3=41-60%) | 4 (4=61-80%) | 4 (4=61-80%) | 4 (4=61-80%) | 3 (3=41-60%) | 1 (1=0-20%) | 1 (1=0-20%) | 3 (3=41-60%) | 2 (2=21-40%) | 3 (3=41-60%) | 0 | –
